The values below come from patent US12522594B2, “2-heteroaryl-3-oxo-2,3-dihydropyridazine-4-carboxamides for the treatment of cancer” (Deutsches Krebsforschungszentrum, priority 2017, dated 2026).

Holding throughout (format): cell-based
Assay [1] has as its target T1, AHR (Homo sapiens, UniProt P35869).
T1 sequence (P35869 11-848): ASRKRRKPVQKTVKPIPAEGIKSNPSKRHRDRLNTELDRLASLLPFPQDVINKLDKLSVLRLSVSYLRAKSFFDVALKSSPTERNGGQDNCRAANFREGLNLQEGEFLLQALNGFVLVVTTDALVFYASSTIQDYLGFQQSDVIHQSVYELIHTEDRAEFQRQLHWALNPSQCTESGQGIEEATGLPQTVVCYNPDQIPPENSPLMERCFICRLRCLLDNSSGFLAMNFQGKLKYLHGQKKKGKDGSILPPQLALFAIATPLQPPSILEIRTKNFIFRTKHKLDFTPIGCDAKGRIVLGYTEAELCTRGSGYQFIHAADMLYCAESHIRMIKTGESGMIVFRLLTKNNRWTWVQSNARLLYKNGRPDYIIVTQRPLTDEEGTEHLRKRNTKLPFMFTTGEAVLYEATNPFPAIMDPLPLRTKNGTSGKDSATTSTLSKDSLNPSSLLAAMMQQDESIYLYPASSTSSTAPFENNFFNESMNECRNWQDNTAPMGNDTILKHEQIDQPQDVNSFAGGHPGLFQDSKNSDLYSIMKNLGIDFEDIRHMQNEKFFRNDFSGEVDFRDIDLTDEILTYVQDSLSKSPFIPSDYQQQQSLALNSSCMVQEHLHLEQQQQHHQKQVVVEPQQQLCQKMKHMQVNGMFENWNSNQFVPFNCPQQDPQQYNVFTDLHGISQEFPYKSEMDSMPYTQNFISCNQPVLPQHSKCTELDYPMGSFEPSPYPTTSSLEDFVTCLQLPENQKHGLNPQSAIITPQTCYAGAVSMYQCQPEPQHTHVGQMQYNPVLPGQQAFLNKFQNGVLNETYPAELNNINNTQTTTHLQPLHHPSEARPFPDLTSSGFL
As to the kind of experiment: In vitro assay 1: antagonism in human cell line (transactivation assay, U87 cells prestimulated with kynurenic acid, DRE firefly luciferase reporter). Set-up: host or cells: U87 glioblastoma cells, stably transfected with DRE firefly luciferase and renilla reporter constructs. The note with it: 150 uM kynurenic acid, 20 hours, read-out: Assay 1: AHR-luc Hum Antagonism IC50. The gist of the method: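 U87 glioblastoma cells with endogenous AHR, stably carrying a DRE-driven firefly luciferase reporter and a constitutive renilla reporter. Cells prestimulated with the AHR agonist kynurenic acid before compound addition; data normalized to positive and negative controls.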

For assay [2], the target named is T1, AHR. As to the kind of experiment: In vitro assay 3: AHR-regulated CYP1A1 expression in human cell line (U937, qPCR, KA stimulation). The note with it: U937 cells, 200 uM KA, 6 hours, CYP1A1 expression by qPCR; read-out: Assay 3: Hum CYP1A1 Antagonism IC50. Summed up: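 U937 human monocytic cells were stimulated with 200 uM KA for 6 h, with or without compound at eight concentrations from 1 nM to 3 uM, in duplicate. CYP1A1 mRNA was quantified by Taqman qPCR as fold expression normalised to HPRT. Unstimulated cells served as negative control.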

The target in assay [3] is T1, AHR. As to the kind of experiment: In vitro assay 2: agonism in human cell line (transactivation assay, U87 cells, DRE firefly luciferase reporter). As to conditions: no kynurenic acid, 20 hours, read-out: Assay 2: AHR-luc Hum Agonism IC50. Further details: host or cells: U87 glioblastoma cells, stably transfected with DRE firefly luciferase and renilla reporter constructs. Summed up:
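U87 glioblastoma cells with endogenous AHR, stably carrying DRE-driven firefly luciferase and constitutive renilla reporters. 300 uM kynurenic acid served as positive activation control; data normalized to positive and negative controls.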

As for `C[C@@H](CO)NC(=O)c1cc(-c2ccc(Cl)cc2)nn(-c2cccnc2)c1=O` [Example 68, 6-(4-Chlorophenyl)-N-[(2S)-1-hydroxypropan-2-yl]-3-oxo-2-(pyridin-3-yl)-2,3-dihydropyridazine-4-carboxamide], the figures for the IC50 at AHR [1], on AHR [2] and on AHR [3] were 24.2 nM, 21.8 nM and more than 20000 nM, respectively.
Taken in the same sequence, the figures for `O=C(NC[C@H](O)C(F)(F)F)c1cc(-c2ccc(Cl)cc2)nn(-c2cncnc2)c1=O` [Example 237, 6-(4-Chlorophenyl)-3-oxo-2-(pyrimidin-5-yl)-N-[(2S)-3,3,3-trifluoro-2-hydroxypropyl]-2,3-dihydropyridazine-4-carboxamide] were 9.38 nM, 7.86 nM and more than 20000 nM.
For `C[C@H](CO)NC(=O)c1cc(-c2ccc(C(F)(F)F)cc2)nn(-c2cnn(C)c2)c1=O` [Example 38, (−)-N-[(2R)-1-Hydroxypropan-2-yl]-2-(1-methyl-1H-pyrazol-4-yl)-3-oxo-6-[4-(trifluoromethyl)phenyl]-2,3-dihydropyridazine-4-carboxamide] the same measures were 34.3 nM, 36.2 nM and more than 20000 nM.
Taken in the same sequence, the figures for `O=C(N[C@H]1COC[C@H]1O)c1cc(-c2ccc(OC(F)(F)F)cc2)nn(-c2cccnc2)c1=O` (single isomer, unassigned; enantiomer 1) [Example 158, N-[(cis)-4-Hydroxytetrahydrofuran-3-yl]-3-oxo-2-(pyridin-3-yl)-6-[4-(trifluoromethoxy)phenyl]-2,3-dihydropyridazine-4-carboxamide, Enantiomer 1] were 21.8 nM, 25.2 nM and more than 20000 nM.
On to `Cc1ccc(-c2cc(C(=O)N[C@@H](C)CO)c(=O)n(-c3cccnc3)n2)cc1` [Example 152, N-[(2S)-1-Hydroxypropan-2-yl]-6-(4-methylphenyl)-3-oxo-2-(pyridin-3-yl)-2,3-dihydropyridazine-4-carboxamide], for which the IC50 was 24.1 nM at AHR [1], 21.3 nM on AHR [2] and more than 20000 nM at AHR [3].
For `C[C@@H](NC(=O)c1cc(-c2ccc(C(F)(F)F)cc2)nn(-c2cccnc2)c1=O)C(C)(C)O` [Example 234, N-[(2R)-3-Hydroxy-3-methylbutan-2-yl]-3-oxo-2-(pyridin-3-yl)-6-[4-(trifluoromethyl)phenyl]-2,3-dihydropyridazine-4-carboxamide] the same measures were 8.42 nM, 9.6 nM and more than 20000 nM.
For the compound `C[C@@H](CO)NC(=O)c1cc(-c2ccc(N(C)C)cc2)nn(-c2cnn(C)c2)c1=O` [Example 311, 6-[4-(Dimethylamino)phenyl]-N-[(2S)-1-hydroxypropan-2-yl]-2-(1-methyl-1H-pyrazol-4-yl)-3-oxo-2,3-dihydropyridazine-4-carboxamide], the IC50 on AHR [1] is 1.82 nM; at AHR [2], 1.03 nM; at AHR [3], more than 20000 nM.
For `Cn1cc(-n2nc(-c3ccc(C(F)(F)F)cc3)cc(C(=O)N[C@H](CO)C3CC3)c2=O)cn1` [Example 238, N-[(1S)-1-Cyclopropyl-2-hydroxyethyl]-2-(1-methyl-1H-pyrazol-4-yl)-3-oxo-6-[4-(trifluoromethyl)phenyl]-2,3-dihydropyridazine-4-carboxamide] the same measures were 9.88 nM, 14.7 nM and more than 20000 nM.
Regarding `CC(C)(O)CNC(=O)c1cc(-c2ccc(Cl)cc2)nn(-c2cncc(F)c2)c1=O` [Example 82, 6-(4-Chlorophenyl)-2-(5-fluoropyridin-3-yl)-N-(2-hydroxy-2-methylpropyl)-3-oxo-2,3-dihydropyridazine-4-carboxamide], the IC50 at AHR [1] was 37.6 nM; on AHR [2], 34.5 nM; on AHR [3], more than 20000 nM.
On to `CC(C)(O)CNC(=O)c1cc(-c2ccc(OC(F)(F)F)cc2)nn(-c2cccnc2)c1=O` [Example 292, N-(2-Hydroxy-2-methylpropyl)-3-oxo-2-(pyridin-3-yl)-6-[4-(trifluoromethoxy)phenyl]-2,3-dihydropyridazine-4-carboxamide], for which the IC50 at AHR [1] is 45.9 nM; at AHR [2], 43.3 nM; on AHR [3], more than 20000 nM.
Taken in the same sequence, the figures for `C[C@H](NC(=O)c1cc(-c2ccc(Cl)cc2)nn(-c2cnn(C(F)F)c2)c1=O)C(C)(C)O` [Example 264, 6-(4-Chlorophenyl)-2-[1-(difluoromethyl)-1H-pyrazol-4-yl]-N-[(2S)-3-hydroxy-3-methylbutan-2-yl]-3-oxo-2,3-dihydropyridazine-4-carboxamide] were 44.4 nM, 85.6 nM and more than 20000 nM.
Taken in the same sequence, the figures for `Cc1cc(-n2nc(-c3ccc(Cl)cc3)cc(C(=O)N[C@@H](C)CO)c2=O)[nH]n1` [Example 193, 6-(4-Chlorophenyl)-N-[(2S)-1-hydroxypropan-2-yl]-2-(3-methyl-1H-pyrazol-5-yl)-3-oxo-2,3-dihydropyridazine-4-carboxamide] were 352 nM, 3.03 nM and more than 20000 nM.
For `O=C(N[C@H](CO)C(F)(F)F)c1cc(-c2ccc(Cl)cc2)nn(-c2cccnc2)c1=O` [Example 96, (+)-6-(4-Chlorophenyl)-3-oxo-2-(pyridin-3-yl)-N-[(2R)-1,1,1-trifluoro-3-hydroxypropan-2-yl]-2,3-dihydropyridazine-4-carboxamide] the same measures were 3.67 nM, 3.77 nM and more than 20000 nM.
With `Cn1cc(-n2nc(-c3ccc(Cl)cc3)cc(C(=O)N[C@@H]3CCC[C@]3(C)O)c2=O)cn1` (relative stereo) [Example 317, 6-(4-Chlorophenyl)-N-[(cis)-2-hydroxy-2-methylcyclopentyl]-2-(1-methyl-1H-pyrazol-4-yl)-3-oxo-2,3-dihydropyridazine-4-carboxamide], the IC50 was 30.3 nM on AHR [1], 37.3 nM on AHR [2] and more than 20000 nM on AHR [3].
For `Cn1cc(-n2nc(-c3ccc(C(F)(F)F)cc3)cc(C(=O)N[C@H]3CCC[C@@H]3O)c2=O)cn1` [Example 210, N-[(1S,2S)-2-Hydroxycyclopentyl]-2-(1-methyl-1H-pyrazol-4-yl)-3-oxo-6-[4-(trifluoromethyl)phenyl]-2,3-dihydropyridazine-4-carboxamide] the same measures were 1.46 nM, 2.02 nM and more than 20000 nM.
Taken in the same sequence, the figures for `CC(C)(O)CNC(=O)c1cc(-c2ccc(Cl)cc2)nn(-c2cccnc2)c1=O` [Example 71, 6-(4-Chlorophenyl)-N-(2-hydroxy-2-methylpropyl)-3-oxo-2-(pyridin-3-yl)-2,3-dihydropyridazine-4-carboxamide] were 38 nM, 60.7 nM and more than 20000 nM.
Taken in the same sequence, the figures for `C[C@@H](CO)NC(=O)c1cc(-c2ccc(Cl)cc2)nn(-c2cnsc2)c1=O` [Example 194, (+)-6-(4-Chlorophenyl)-N-[(2S)-1-hydroxypropan-2-yl]-3-oxo-2-(1,2-thiazol-4-yl)-2,3-dihydropyridazine-4-carboxamide] were 3.09 nM, 7.6 nM and more than 20000 nM.
Regarding `Cn1cc(-n2nc(-c3ccc(Cl)cc3)cc(C(=O)NCC(O)C(F)(F)F)c2=O)cn1` (single isomer, unassigned; (-)) [Example 19, (−)-6-(4-Chlorophenyl)-2-(1-methyl-1H-pyrazol-4-yl)-3-oxo-N-(3,3,3-trifluoro-2-hydroxypropyl)-2,3-dihydropyridazine-4-carboxamide], the IC50 was 3.92 nM at AHR [1], 6.43 nM on AHR [2] and more than 20000 nM on AHR [3].
For `O=C(NC(CO)C1CC1)c1cc(-c2ccc(Cl)cc2)nn(-c2cccnc2)c1=O` (racemic) [Example 77, 6-(4-Chlorophenyl)-N-[(1RS)-1-cyclopropyl-2-hydroxyethyl]-3-oxo-2-(pyridin-3-yl)-2,3-dihydropyridazine-4-carboxamide] the same measures were 11.2 nM, 8.7 nM and more than 20000 nM.
